Measured values taken from ChEMBL document CHEMBL1137635, “Multiple antibiotics exert delayed effects against the Plasmodium falciparum apicoplast” (Antimicrob Agents Chemother, 2007).
Active and inactive are the calls of the source. The rule behind the calls is not given here.

Experiments:
Plasmodium falciparum [1] = assay: Antimalarial activity as 3rd generation parasitaemia against chloroquine-sensitive Plasmodium falciparum 3D7 infected human erythrocytes after 96hrs at 100 nM dosed 0-24 hrs post infection; assay type: functional
[2] = Half life in human at 1000 mg, po once daily for 3 days; assay type: ADME, organism-based; conditions: in vivo
[3] = Tmax in human at 1000 mg, po once daily for 3 days; assay type: ADME, organism-based; conditions: in vivo
Plasmodium falciparum [4] = assay: Antimalarial activity as abnormal apicoplast morphology in chloroquine-sensitive ACP1-GFP-labeled Plasmodium falciparum 3D7 trophozoite infected human erythrocytes at 2xIC50 dosed 96 hrs post infection; assay type: functional
Plasmodium falciparum [5] = assay: Antimalarial activity as segregation of apicoplast in chloroquine-sensitive ACP1-GFP-labeled Plasmodium falciparum 3D7 schizont infected human erythrocytes at 100 nM dosed 96 hrs post infection; assay type: functional, organism-based
Plasmodium falciparum [6] = assay: Antimalarial activity as 3rd generation ring-stage chloroquine-sensitive Plasmodium falciparum 3D7 after 48 hrs dose then 48 hrs drug-free; assay type: functional, organism-based; conditions: 3D7, 48 h
Plasmodium falciparum [7] = assay: Antimalarial activity as 3rd generation parasitaemia against chloroquine-sensitive Plasmodium falciparum 3D7 infected human erythrocytes after 96hrs at 100 nM dosed 24-48 hrs post infection; assay type: functional
Plasmodium falciparum [8] = assay: Antimalarial activity as arrested schizont maturation in chloroquine-sensitive Plasmodium falciparum 3D7 infected human erythrocytes after 48 hrs at 100 nM dosed 96 hrs post infection; assay type: functional, organism-based
Plasmodium falciparum [9] = assay: Antimalarial activity as segregation of apicoplast in chloroquine-sensitive Plasmodium falciparum 3D7 progeny infected human erythrocytes at 100 nM dosed 96 hrs post infection; assay type: functional, organism-based
[10] = Cmax in human at 1000 mg, po once daily for 3 days; assay type: ADME, organism-based; parameters: dose 1000 mg, route oral; conditions: in vivo
Plasmodium falciparum [11] = assay: Antimalarial activity as 3rd generation parasitaemia against chloroquine-sensitive Plasmodium falciparum 3D7 infected human erythrocytes after 96hrs at 100 nM dosed 12-48 hrs post infection; assay type: functional
Plasmodium falciparum [12] = assay: Antimalarial activity as 3rd generation parasitaemia against chloroquine-sensitive Plasmodium falciparum 3D7 infected human erythrocytes after 96hrs at 100 nM dosed 12-24 hrs post infection; assay type: functional
Plasmodium falciparum [13] = assay: Antimalarial activity as 3rd generation parasitaemia against chloroquine-sensitive Plasmodium falciparum 3D7 infected human erythrocytes after 96 hrs at 100 nM dosed 0-48 hrs post infection; assay type: functional
Plasmodium falciparum [14] = assay: Antimalarial activity as 2nd generation ring-stage chloroquine-resistant Plasmodium falciparum W2 after 48 hrs by flow cytometry; assay type: functional, organism-based; conditions: W2, 48 h
Plasmodium falciparum [15] = assay: Antimalarial activity as 3rd generation parasitaemia against chloroquine-sensitive Plasmodium falciparum 3D7 infected human erythrocytes after 96hrs at 100 nM dosed 36-48 hrs post infection; assay type: functional
Plasmodium falciparum [16] = assay: Antimalarial activity as 2nd generation ring-stage chloroquine-sensitive Plasmodium falciparum 3D7 after 48 hrs by flow cytometry; assay type: functional, organism-based; conditions: 3D7, 48 h
Plasmodium falciparum [17] = assay: Antimalarial activity as 3rd generation parasitaemia against chloroquine-sensitive Plasmodium falciparum 3D7 infected human erythrocytes assessed after 96hrs at 100 nM dosed 12-36 hrs post infection; assay type: functional
Plasmodium falciparum [18] = assay: Antimalarial activity as parasitaemia against chloroquine-sensitive ACP1-GFP-labeled Plasmodium falciparum 3D7 trophozoite infected human erythrocytes at 2xIC50 dosed 96 hrs post infection; assay type: functional
Plasmodium falciparum [19] = assay: Antimalarial activity as 3rd generation parasitaemia against chloroquine-sensitive Plasmodium falciparum 3D7 infected human erythrocytes after 96hrs at 100 nM dosed 0-36 hrs post infection; assay type: functional
Plasmodium falciparum [20] = assay: Antimalarial activity as 3rd generation ring-stage chloroquine-resistant Plasmodium falciparum W2 after 48 hrs dose then 48 hrs drug-free; assay type: functional, organism-based; conditions: W2, 48 h
Plasmodium falciparum [21] = assay: Antimalarial activity as 3rd generation parasitaemia against chloroquine-sensitive Plasmodium falciparum 3D7 infected human erythrocytes after 96 hrs at 100 nM dosed 0-12 hrs post infection; assay type: functional
Plasmodium falciparum [22] = assay: Antimalarial activity as 3rd generation parasitaemia against chloroquine-sensitive Plasmodium falciparum 3D7 infected human erythrocytes after 96hrs at 100 nM dosed 24-36 hrs post infection; assay type: functional
Plasmodium falciparum [23] = assay: Antimalarial activity as 3rd generation after 96 hrs against chloroquine-sensitive Plasmodium falciparum 3D7 infected human erythrocytes at 6 uM 0-48 hrs post invasion; assay type: functional
Plasmodium falciparum [24] = assay: Antimalarial activity as 3rd generation parasitaemia against chloroquine-sensitive Plasmodium falciparum 3D7 infected human erythrocytes after 96hrs at 6 uM dosed 24-48 hrs post infection; assay type: functional
Plasmodium falciparum [25] = assay: Antimalarial activity as 3rd generation parasitaemia against chloroquine-sensitive Plasmodium falciparum 3D7 infected human erythrocytes after 96hrs at 6 uM dosed 0-12 hrs post infection; assay type: functional
Plasmodium falciparum [26] = assay: Antimalarial activity as 3rd generation parasitaemia against chloroquine-sensitive Plasmodium falciparum 3D7 infected human erythrocytes after 96hrs at 6 uM dosed 0-36 hrs post infection; assay type: functional
Plasmodium falciparum [27] = assay: Antimalarial activity as schizont arrest after 48 hrs in chloroquine-sensitive Plasmodium falciparum 3D7 infected human erythrocytes at 6 uM 96 hrs post invasion by Giemsa staining; assay type: functional, organism-based
[28] = Cmax in patient with bronchitis at 500 mg, po twice daily for 3 days; conditions: human, in vivo
Plasmodium falciparum [29] = assay: Antimalarial activity as segregation of apicoplasts against chloroquine-sensitive Plasmodium falciparum 3D7 infected in human erythrocytes at 6 uM 96 hrs post infection; assay type: functional, organism-based
Plasmodium falciparum [30] = assay: Antimalarial activity as 3rd generation parasitaemia against chloroquine-sensitive Plasmodium falciparum 3D7 infected human erythrocytes after 96hrs at 6 uM dosed 0-24 hrs post infection; assay type: functional
Plasmodium falciparum [31] = assay: Antimalarial activity as 3rd generation parasitaemia against chloroquine-sensitive Plasmodium falciparum 3D7 infected human erythrocytes after 96hrs at 6 uM dosed 12-36 hrs post infection; assay type: functional
Plasmodium falciparum [32] = assay: Antimalarial activity as 3rd generation parasitaemia against chloroquine-sensitive Plasmodium falciparum 3D7 infected human erythrocytes after 96hrs at 6 uM dosed 36-48 hrs post infection; assay type: functional
Plasmodium falciparum [33] = assay: Antimalarial activity as segregation of apicoplasts against chloroquine-sensitive ACP1-GFP-labeled Plasmodium falciparum 3D7 schizont infected human erythrocytes at 6 uM 96 hrs post infection; assay type: functional, organism-based
Plasmodium falciparum [34] = assay: Antimalarial activity as 3rd generation parasitaemia against chloroquine-sensitive Plasmodium falciparum 3D7 infected human erythrocytes after 96hrs at 6 uM dosed 12-24 hrs post infection; assay type: functional
[35] = Tmax in patient with bronchitis at 500 mg, po twice daily for 3 days; conditions: human, in vivo
Plasmodium falciparum [36] = assay: Antimalarial activity as 3rd generation parasitaemia against chloroquine-sensitive Plasmodium falciparum 3D7 infected human erythrocytes after 96hrs at 6 uM dosed 12-48 hrs post infection; assay type: functional
Plasmodium falciparum [37] = assay: Antimalarial activity as 3rd generation parasitaemia against chloroquine-sensitive Plasmodium falciparum 3D7 infected human erythrocytes after 96hrs at 6 uM dosed 24-36 hrs post infection; assay type: functional
Plasmodium falciparum [38] = assay: Antimalarial activity as 3rd generation parasitaemia against chloroquine-sensitive Plasmodium falciparum 3D7 infected human erythrocytes after 96hrs at 25 nM dosed 0-36 hrs post infection; assay type: functional
Plasmodium falciparum [39] = assay: Antimalarial activity as 3rd generation parasitaemia against chloroquine-sensitive Plasmodium falciparum 3D7 infected human erythrocytes after 96 hr at 25 nM dosed 24-48 hrs post infection; assay type: functional
Plasmodium falciparum [40] = assay: Antimalarial activity in chloroquine-sensitive ACP1-GFP-labeled Plasmodium falciparum 3D7 after 48 hrs at 2xIC50 dosed 96 hrs post infection; assay type: functional, organism-based
Plasmodium falciparum [41] = assay: Antimalarial activity as3rd generation parasitaemia against chloroquine-sensitive Plasmodium falciparum 3D7 infected human erythrocytes after 96 hrs at 25 nM dosed 12-36 hrs post infection; assay type: functional
Plasmodium falciparum [42] = assay: Antimalarial activity as 3rd generation parasitaemia after 96 hrs against chloroquine-sensitive Plasmodium falciparum 3D7 infected human erythrocytes at 25 nM 36-48 hrs post invasion; assay type: functional
Plasmodium falciparum [43] = assay: Antimalarial activity as 3rd generation parasitaemia against chloroquine-sensitive Plasmodium falciparum 3D7 infected human erythrocytes after 96hrs at 25 nM dosed 0-48 hrs post infection; assay type: functional
Plasmodium falciparum [44] = assay: Antimalarial activity as 3rd generation parasitaemia against chloroquine-sensitive Plasmodium falciparum 3D7 infected human erythrocytes after 96hrs at 25 nM dosed 12-48 hrs post infection; assay type: functional
Plasmodium falciparum [45] = assay: Antimalarial activity as segregation of apicoplasts against chloroquine-sensitive Plasmodium falciparum 3D7 infected human erythrocytes at 25 nM 96 hrs post infection; assay type: functional, organism-based
Plasmodium falciparum [46] = assay: Antimalarial activity as arrested schizont maturation in chloroquine-sensitive Plasmodium falciparum 3D7 infected human erythrocytes after 48 hrs at 25 nM dosed 96 hrs post infection; assay type: functional, organism-based
Plasmodium falciparum [47] = assay: Antimalarial activity as 3rd generation parasitaemia against chloroquine-sensitive Plasmodium falciparum 3D7 infected human erythrocytes after 96hrs at 25 nM dosed 0-12 hrs post infection; assay type: functional
Plasmodium falciparum [48] = assay: Antimalarial activity as 3rd generation parasitaemia against chloroquine-sensitive Plasmodium falciparum 3D7 infected human erythrocytes after 96hrs at 25 nM dosed 24-36 hrs post infection; assay type: functional
Plasmodium falciparum [49] = assay: Antimalarial activity as 3rd generation parasitaemia against chloroquine-sensitive Plasmodium falciparum 3D7 infected human erythrocytes after 96hrs at 25 nM dosed 12-24 hrs post infection; assay type: functional
Plasmodium falciparum [50] = assay: Antimalarial activity as segregation of apicoplast in chloroquine-sensitive ACP1-GFP-labeled Plasmodium falciparum 3D7 schizont infected human erythrocytes at 25 nM dosed 96 hrs post infection; assay type: functional, organism-based
Plasmodium falciparum [51] = assay: Antimalarial activity as 3rd generation parasitaemia against chloroquine-sensitive Plasmodium falciparum 3D7 infected human erythrocytes after 96hrs at 25 nM dosed 0-24 hrs post infection; assay type: functional
Plasmodium falciparum [52] = assay: Antimalarial activity as abnormal apicoplast morphology in chloroquine-sensitive ACP1-GFP-labeled Plasmodium falciparum 3D7 after 48 hrs at 2xIC50 dosed 96 hrs post infection; assay type: functional, organism-based
[53] = Tmax in patient with kidney disease at 300 mg, po; assay type: ADME, organism-based; conditions: human, in vivo
Homo sapiens = assay: Half life in patient with kidney disease at 300 mg, po; assay type: ADME, organism-based; conditions: in vivo
[54] = Cmax in patient with kidney disease at 300 mg, po; assay type: ADME, organism-based; parameters: dose 300 mg, route oral; conditions: human, in vivo

## CC[C@H]1OC(=O)[C@H](C)[C@@H](O[C@H]2C[C@@](C)(OC)[C@@H](O)[C@H](C)O2)[C@H](C)[C@@H](O[C@@H]2O[C@H](C)C[C@H](N(C)C)[C@H]2O)[C@](C)(O)C[C@@H](C)CN(C)[C@H](C)[C@@H](O)[C@]1(C)O [AZITHROMYCIN]
Plasmodium falciparum [1]
  Activity: 61%
[2]
  half-life: 74 h
[3]
  Tmax: 2.4 h
Plasmodium falciparum [4]
  Activity: 83.4%
Plasmodium falciparum [5]
  Activity: Active
Plasmodium falciparum [6]
  IC50: 0.0527 µM
Plasmodium falciparum [7]
  Activity: 68%
Plasmodium falciparum [8]
  Activity: inactive
Plasmodium falciparum [9]
  Activity: Active
[10]
  Cmax: 1.1 µM
Plasmodium falciparum [11]
  Activity: 18%
Plasmodium falciparum [12]
  Activity: 59%
Plasmodium falciparum [13]
  Activity: 17%
Plasmodium falciparum [14]
  IC50: 1.46 µM
Plasmodium falciparum [15]
  Activity: 113%
Plasmodium falciparum [16]
  IC50: 8.67 µM
Plasmodium falciparum [17]
  Activity: 28%
Plasmodium falciparum [18]
  Activity: 105%
Plasmodium falciparum [19]
  Activity: 30%
Plasmodium falciparum [20]; read-out: IC50
  IC50: 0.031 µM
Plasmodium falciparum [21]
  Activity: 91%
Plasmodium falciparum [22]
  Activity: 79%

## O=C(O)c1cn(C2CC2)c2cc(N3CCNCC3)c(F)cc2c1=O [CIPROFLOXACIN]
Plasmodium falciparum [23]
  Activity: 13%
Plasmodium falciparum [4]
  Activity: 81.4%
Plasmodium falciparum [24]
  Activity: 74%
Plasmodium falciparum [25]
  Activity: 80%
Plasmodium falciparum [6]
  IC50: 3.04 µM
Plasmodium falciparum [26]
  Activity: 35%
Plasmodium falciparum [27]
  Activity: inactive
[28]
  Cmax at 72 h: 7.6 µM
Plasmodium falciparum [29]
  Activity: Active
Plasmodium falciparum [30]
  Activity: 67%
Plasmodium falciparum [14]
  IC50: 24.9 µM
Plasmodium falciparum [31]
  Activity: 23%
Plasmodium falciparum [16]
  IC50: 9.44 µM
Plasmodium falciparum [18]
  Activity: 98.6%
Plasmodium falciparum [32]
  Activity: 108%
Plasmodium falciparum [33]
  Activity: Active
Plasmodium falciparum [34]
  Activity: 63%
Plasmodium falciparum [20]
  IC50: 1.75 µM
[35]
  Tmax at 72 h: 0.6 h
Plasmodium falciparum [36]
  Activity: 24%
Plasmodium falciparum [37]
  Activity: 70%

## CCC[C@@H]1C[C@@H](C(=O)N[C@@H]([C@H]2O[C@H](SC)[C@H](O)[C@@H](O)[C@H]2O)[C@H](C)Cl)N(C)C1 [CLINDAMYCIN]
Plasmodium falciparum [38]
  Activity: 21%
Plasmodium falciparum [4]
  Activity: 85.2%
Plasmodium falciparum [39]
  Activity: 78%
Plasmodium falciparum [6]
  IC50: 0.00881 µM
Plasmodium falciparum [40]
  Activity: Active
Plasmodium falciparum [41]
  Activity: 15%
Plasmodium falciparum [42]
  Activity: 63%
Plasmodium falciparum [43]
  Activity: 11%
Plasmodium falciparum [44]
  Activity: 19%
Plasmodium falciparum [45]
  Activity: Active
Plasmodium falciparum [46]
  Activity: inactive
Plasmodium falciparum [14]
  IC50: > 100 µM
Plasmodium falciparum [47]
  Activity: 87%
Plasmodium falciparum [48]
  Activity: 52%
Plasmodium falciparum [49]
  Activity: 41%
Plasmodium falciparum [16]
  IC50: > 100 µM
Plasmodium falciparum [18]
  Activity: 99.3%
Plasmodium falciparum [20]; read-out: IC50
  IC50: 0.00312 µM
Plasmodium falciparum [50]
  Activity: Active
Plasmodium falciparum [51]
  Activity: 49%
Plasmodium falciparum [52]
  Activity: Active

## CCN(CC)CCCC(C)Nc1ccnc2cc(Cl)ccc12 (configuration not stated) [CHLOROQUINE]
[53]
  Tmax: 6.6 h
Homo sapiens
  t1/2: 240 h
[54]
  Cmax: 0.24 µM
